Oligonucleotides are written 5' to 3', each unit as a sugar letter and its base; * is a phosphorothioate linkage, no mark a phosphodiester; rarer units and linkages stand in square brackets, end groups in braces. Plain capitals give the bases only. r = 2'-OH (RNA); f = 2'-fluoro

Data set [1] has as its target T1, recombinant chymase (expressed by yeast) (Homo sapiens, UniProt P23946).
T1 construct: purchased SIGMA; host or cells: yeast
T1 sequence (P23946 22-247): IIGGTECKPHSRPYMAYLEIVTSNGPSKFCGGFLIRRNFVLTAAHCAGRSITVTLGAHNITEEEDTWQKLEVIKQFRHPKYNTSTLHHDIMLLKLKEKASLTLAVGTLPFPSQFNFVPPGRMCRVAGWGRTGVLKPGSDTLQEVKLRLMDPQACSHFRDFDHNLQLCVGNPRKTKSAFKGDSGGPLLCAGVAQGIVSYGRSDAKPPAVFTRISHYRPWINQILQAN
Briefly: Chymase inhibitory activity using angiotensin I as substrate, recombinant chymase. It is filed as biochemical. The note with it: final 50 μM, chymase 0.2-0.5 nM, 37° C. 90 min, one measurement. Here is the method: (§1) A second method of evaluation employs a native substrate. A useful native substrate for chymase is angiotensin I. Here, His-Leu, a peptide fragment released upon degradation of angiotensin I, is fluorescently derivatized, and the fluorescence intensity therefrom is quantified.
(§2) In the assay, an enzyme reaction is carried out in 50 μL of solution C. First, 0.3-0.75 ng of chymase (recombinant, manufactured by SIGMA; or native, manufactured by Calbiochem) is diluted in solution C to obtain 5 μL chymase solution. Each nucleic acid is prepared in solution C to obtain 25 μL solutions. 5 μL of each chymase dilution and 25 μL of each nucleic acid solution are mixed, and then the mixture is incubated at 37° C. for 5 minutes. […] The angiotensin I solution is added to the mixture of chymase and nucleic acid, and the enzyme reaction is initiated. After the reaction was allowed to proceed at 37° C. for 90 minutes, 25 μL of ice-cooled 30% trichloroacetic acid solution is added to terminate the reaction. The entire mixture is centrifuged at 4° C., 14000 rpm for 10 minutes, and 30 μL of the resulting supernatant is used for the subsequent reaction for fluorescent derivatization.
(§3) After 30 μL of the supernatant is added to a 96-well plate (Black, manufactured by Costar), 15 μL of 2% o-phthalaldehyde (manufactured by SIGMA) solution in methanol and 170 μL of 0.3M NaOH solution are mixed in each well, and the plate is allowed to stand at room temperature for 10 minutes. Subsequently, 25 μL of 3M HCl solution is added to terminate the reaction. The plate is set to the microplate reader SpectraMax190 (manufactured by Molecular Devices Corporation), and the fluorescence intensity is determined at an excitation wavelength of 355 nm and a fluorescence wavelength of 460 nm.
(§4) For control, samples are treated and analyzed in the same manner in two cases: use of SEQ ID NO: 58 (negative control) and use of chymostatin, a known chymotrypsin-like serine protease inhibitor (positive control). In both cases, fluorescence intensity obtained at 0 minute reaction time serves as a blank determination. Taking the fluorescence intensity detected with the addition of an equal volume of solution C, in place of each nucleic acid, in the chymase enzyme reaction as 100%, the inhibitory rate for each test substance is calculated, and the inhibitor concentration required to cause a 50% inhibition of the enzyme activity (IC50) is determined.
(§5) For further assessment of the inhibitory activity of the nucleic acid of the present invention, the enzyme activity of chymase was measured using angiotensin I, which is a native substrate for chymase, according to the following method. Angiotensin I is converted by chymase to angiotensin II, during which a peptide fragment His-Leu is released. Since the peptide His-Leu is fluorescently derivatized by o-phthalaldehyde, its fluorescence intensity can be quantitatively measured.
(§6) The total volume of solution for an enzyme reaction in the assay was set to 50 μL, and the reaction was performed in solution C buffer. First, 0.3-0.75 ng of chymase (recombinant, (manufactured by SIGMA) or native (manufactured by Calbiochem)) was diluted with solution C to give 5 μL thereof. Here, the recombinant is chymase expressed by yeast, and the native is chymase purified from human skin mast cell. The nucleic acid was serially diluted with solution C at a concentration of 0.0027-2 μM to give 25 μL thereof. The chymase solution (5 μL) and the nucleic acid solution (25 μL) were mixed, and the mixture was incubated at 37° C. for 5 min. On the other hand, […] angiotensin I (manufactured by PEPTIDE INSTITUTE, INC.) was prepared in solution C to give […] thereof, which was incubated at 37° C. for 5 min. The angiotensin I solution was added to a mixture of chymase and nucleic acid to start an enzyme reaction. The final chymase concentration of the reaction solution was 0.2-0.5 nM, and the final substrate concentration was 50 μM. […]

The target in data set [2] is T2, native chymase (purified from human skin mast cell) (Homo sapiens, UniProt P23946).
T2 construct: the native is chymase purified from human skin mast cell; purchased Calbiochem; host or cells: human skin mast cell
T2 sequence (P23946 22-247): T1 sequence (P23946 22-247)
Description: Chymase inhibitory activity using angiotensin I as substrate, native chymase. It is filed as biochemical. The note with it: final 50 μM, chymase 0.2-0.5 nM, 37° C. 90 min, one measurement. Here is the method: as §1, §2, §3, §4, §5, §6

For data set [3], the target named is T3, chymase (recombinant, manufactured by SIGMA) (Homo sapiens, UniProt P23946).
T3 construct: purchased SIGMA; host or cells: yeast
T3 sequence (P23946 22-247): T1 sequence (P23946 22-247)
Description: Surface plasmon resonance (Biacore T100), chymase immobilized on CM5 chip, nucleic acid injected as analyte. In kind it is binding. Also noted: key to Binding activity as determined using Biacore: ++: a sequence that binds to chymase significantly more strongly than the negative control 40N; +: a sequence that binds to chymase equivalently compared with the negative control 40N; key to binding activity using Biacore: ++: significant binding to chymase than SEQ ID NO: 58 which is a negative control; +: similar binding level as SEQ ID NO: 58 which is a negative control. The note with it: for binding activity using Biacore: same manner as Example 4, compared with SEQ ID NO: 58; for Binding activity as determined using Biacore: Table 4, about 4000 RU chymase immobilized, nucleic acid 0.3 μM, solution C, compared with 40N. How it is done: In another method, chymase is first immobilized onto a sensor chip, the amount immobilized being about 4000 RU. 20 μL of an aptamer solution for analyte, prepared at 0.01 μg/μL, is injected, and the binding of the aptamer to chymase is detected. An RNA containing a random nucleotide sequence of 30 or 40 nucleotides is used as a negative control.
Whether these nucleic acids bind to chymase was determined by the surface plasmon resonance method. Measurements were taken using Biacore T100 (manufactured by GE Healthcare) as described below. About 4000 RU of chymase (recombinant, manufactured by SIGMA) was immobilized on the sensor chip surface of a CM5 chip, using an amine coupling kit. 20 μL of each nucleic acid, prepared at 0.3 μM, as an analyte was injected at a flow rate of 20 μL/min. Solution C was used as a running buffer. The method of evaluation used was the same as Example 1.
All nucleic acids of SEQ ID NO: 58-68 were prepared by chemical synthesis. Whether these nucleic acids are bound to chymase was assessed by surface plasmon resonance method in the same manner as in Example 4. The inhibitory activity on chymase was measured in the same manner as in Example 3.
All nucleic acids of SEQ ID NOs: 73-79, 56(8), 80, 56(10), 81, 56(13)-56(14), 83-87 were prepared by chemical synthesis. Whether these nucleic acids are bound to chymase was assessed by surface plasmon resonance method in the same manner as in Example 4.
All nucleic acids of SEQ ID NO: 88-120, 121, 69, 122, 123, 70-72, 124-131 were prepared by chemical synthesis. Whether these nucleic acids are bound to chymase was assessed by surface plasmon resonance method in the same manner as in Example 4.

Regarding “70 (GGGTTAGAUAGAGUUAAAAACCC; chemistry not given here) [compound 70]”, the IC50 (as a rule, the concentration needed to halve the response being measured) came out at 239 nM in data set [1] and 478 nM in data set [2]. For the same molecule, the “binding activity using Biacore” value in data set [3] (Table 7) is “++”.
`CC(C)C[C@H](NC(=O)[C@@H](NC(=O)N[C@@H](Cc1ccccc1)C(=O)O)[C@@H]1CCN=C(N)N1)C(=O)N[C@H](C=O)Cc1ccccc1` [chymostatin, reference compound]: the IC50 in data set [1] was 450 to 600 nM; in data set [2], 350 to 500 nM.
In the same order, the values of “GGGU(F)U(F)GAAGAU(F)AU(F)U(F)AAAGAAC(F)C(F)C(F) (GGGUUGAAGAUAUUAAAGAACCC; 2'-fluoro at CU, RNA at AG, backbone not given here) [SEQ ID NO: 58]” are more than 1000 nM and more than 1000 nM.
In the case of “72 (GGGTTAGAUAGAGTUAAAAACCC; chemistry not given here) [compound 72]”, the IC50 in data set [1] was determined as 65 nM; in data set [2], 120 nM. The “binding activity using Biacore” value in data set [3] (Table 7) is reported as “++”.
Regarding “71 (GGGUUAGAUAGAGTUAAAAACCC; chemistry not given here) [compound 71]”, the IC50 in data set [1] was found to be 161 nM; in data set [2] it was 341 nM. For the same molecule, the “binding activity using Biacore” value in data set [3] (Table 7) is listed as “++”.
Consider “54 (UAACUAUGGUUAGAUAGAGUUAAAAACCAUAGAAGA; 2'-fluoro at CU, RNA at AG, backbone not given here) [compound 54]”, for which the IC50 in data set [1] was found to be 397 nM; in data set [2], 614 nM. Also, the “Binding activity as determined using Biacore” value (shortened to “Binding activity as determined”) in data set [3] is reported as “++”.
For “53 (GGGUAACUAUGGUUAGAUAGAGUUAAAAACCAUAGAAGACCC; 2'-fluoro at CU, RNA at AG, backbone not given here) [compound 53]”, the figures for the IC50 in data set [1] and in data set [2] were 446 nM and 764 nM, respectively. The “Binding activity as determined” value in data set [3] was “++”.
“56 (GGGUUAGAUAGAGUUAAAAACCC; 2'-fluoro at CU, RNA at AG, backbone not given here) [compound 56]”: the IC50 came out at 235 nM in data set [1] and 508 nM in data set [2]. The “Binding activity as determined” value in data set [3] is on record as “++”. Besides, in data set [3] (Table 6), the “binding activity using Biacore” value was “++”.
As to “55 (CUAUGGUUAGAUAGAGUUAAAAACCAUAG; 2'-fluoro at CU, RNA at AG, backbone not given here) [compound 55]”, the IC50 amounted to 354 nM in data set [1] and 606 nM in data set [2]. In addition, in data set [3], the “Binding activity as determined” value is given as “++”.
For the molecule “65 (rGrGfCrArGrAfUrArGrArGfUfUrArArArGfCfC) [compound 65]”, the IC50 in data set [1] turned out to be 274 nM; in data set [2], 878 nM. In addition, the “binding activity using Biacore” value in data set [3] (Table 5) was “++”.
“58 (GGGUUGAAGAUAUUAAAGAACCC; 2'-fluoro at CU, RNA at AG, backbone not given here) [compound 58]”: the “binding activity using Biacore” value in data set [3] (Table 5) was “+”.

B1: 14 (nucleic acid)
chain: rGrGrGrAfCrGrGfUrArGrGrArAfUfUfCfUfCrGfUfUfCfCfUrGrAfCrArGfCrAfUfUfUrGrArGrAfUrArGrAfUfUfUrArArAfCrArArAfCrGfCrAfCrAfUrArGrArArGrArGfCrGrGfCfCrGfC
modifications: aptamer
With B1, the IC50 in data set [1] is 22 nM; in data set [2] it was 63 nM.

B2: 13 (nucleic acid)
chain: rGrGrGrAfCrGrGfUrArGrGrArAfUfUfCfCrGfCrArAfCfCrAfUfCfCfCrGfUrArAfCfUrAfUrGrGfUfUrArGrAfUrArGrArGfUfUrArArArArAfCfCrAfUrArGrArArGrArGfCrGrGfCfCrGfC
modifications: aptamer
For B2, the IC50 in data set [1] is 41 nM; in data set [2], 74 nM.

B3: 4 (nucleic acid)
chain: rGrGrGrAfCrGrGfUrArGrGrArAfUfUfCrGfUfCfCrAfUfUfCfUrAfCrArGrAfUrArGrArGrAfUrArArArGfUrArGrArAfUfUfUrArAfCrArArArAfCrAfUrArGrArArGrArGfCrGrGfCfCrGfC
modifications: aptamer
For B3, the values for the IC50 in data set [1] and in data set [2] were 3 nM and 31 nM, respectively.

These data come from patent US9012420B2, “Aptamer for chymase, and use thereof” (Ribomic Inc., priority 2009, dated 2015).
